Like-named read-outs stand apart in the source and are kept apart here.
Molecular target: T1, TrkA kinase (Homo sapiens, UniProt P04629)
T1 construct: purchased Upstate, USA
Experiment: In vitro TrkA inhibitory activity using TR-FRET assay
Type: biochemical
Conditions: 5 ng TrkA, 500 μM ATP
Method: Determination of In Vitro TrkA Inhibitory Activity Using TR-FRET Assay
Compounds were screened in the TR-FRET assay with TrkA kinase. 5 ng of TrkA [Upstate, USA] kinase was used for assay. The compound was incubated with the kinase for 30 minutes at 20-35° C. After the incubation, substrate mix [40 nM Ultra light poly GT (Perkin Elmer, USA) and 500 μM ATP] was added. The above reaction was stopped by the addition of 40 mM EDTA after 30 minutes. The Eu-labelled antiphospho-tyrosine antibody [Perkin Elmer, USA] was added at 0.5 nM and the fluorescence emission at 615 nm/665 nm [excitation at 340 nm] was measured. The compounds were initially screened at 100 nM, 1 μM and 10 μM concentrations. The potent compounds with >25% inhibition at 1 μM of TrkA were taken for the full dose response studies. The final DMSO concentration in the assay was […]. For IC50 determination, ⅓^rd serial dilution was made from the 20 mM DMSO stock solution. 2 μl of these were transferred to the test wells containing 20 μl reaction mixture [Total reaction volume 22 μl]. The fluorescence was measured in Perkin Elmer Wallac 1420 Multilabel Counter Victor 3. The IC50 was determined by fitting the dose response data to a sigmoidal curve fitting equation using GraphPad Prism software version 5.

[1] = read-out: TrkA inhibitory activity in-vitro IC50
[2] = both bounds given in nm, read-out: TrkA inhibitory activity in-vitro IC50
[3] = read-out: TrkA inhibition in-vitro IC50
[4] = lower bound in nm [sic], upper bound in μM, read-out: TrkA inhibitory activity in-vitro IC50

T1 sequence (P04629 33-796): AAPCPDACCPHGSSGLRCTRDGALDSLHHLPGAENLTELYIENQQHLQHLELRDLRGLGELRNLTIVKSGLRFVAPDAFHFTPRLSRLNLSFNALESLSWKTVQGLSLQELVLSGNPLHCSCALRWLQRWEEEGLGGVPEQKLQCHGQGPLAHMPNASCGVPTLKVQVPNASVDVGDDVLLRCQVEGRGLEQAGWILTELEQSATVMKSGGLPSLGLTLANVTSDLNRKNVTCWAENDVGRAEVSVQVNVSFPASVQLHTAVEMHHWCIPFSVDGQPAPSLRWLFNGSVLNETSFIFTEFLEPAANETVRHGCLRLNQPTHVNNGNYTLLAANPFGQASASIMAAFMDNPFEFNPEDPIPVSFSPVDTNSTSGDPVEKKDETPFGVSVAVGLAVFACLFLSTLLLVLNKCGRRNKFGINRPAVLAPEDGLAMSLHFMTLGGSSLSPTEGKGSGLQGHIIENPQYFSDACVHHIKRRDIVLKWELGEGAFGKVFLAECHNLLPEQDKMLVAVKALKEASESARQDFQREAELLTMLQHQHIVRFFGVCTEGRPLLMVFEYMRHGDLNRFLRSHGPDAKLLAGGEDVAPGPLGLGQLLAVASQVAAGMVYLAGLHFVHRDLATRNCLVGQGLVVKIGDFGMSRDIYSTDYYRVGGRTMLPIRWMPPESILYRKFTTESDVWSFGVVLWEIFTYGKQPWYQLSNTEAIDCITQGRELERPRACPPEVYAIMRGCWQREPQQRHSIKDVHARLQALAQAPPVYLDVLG

**Q.** How did the IC50 [1] turn out when `CC(C)(C)S(=O)(=O)NC(=O)c1cnn2ccc(N3CCCC3c3cc(F)cc4c3OCCO4)cc12` (single isomer, unassigned) [Example 51, N-(tert-butylsulfonyl)-5-(2-(7-fluoro-2,3-dihydrobenzo [b][1,4]dioxin-5-yl)pyrrolidin-1-yl)pyrazolo[1,5-a]pyridine-3-carboxamide] was run?
**A.** Its IC50 is 1 to 10 µM.

**Q.** For `CC(C)(C)S(=O)(=O)NC(=O)c1cnn2ccc(N3C[C@@H](F)CC3c3cc(F)ccc3F)cc12` (single isomer, unassigned) [Example 53], which IC50 [1] is on record?
**A.** Its IC50 is 1 to 10 µM.

**Q.** How did the IC50 [1] turn out when `CC(C)(C)S(=O)(=O)NC(=O)c1cnn2ccc(N3CC(F)(F)CC3c3cc(F)ccc3F)cc12` (single isomer, unassigned) [Example 55] was run?
**A.** The IC50 was 1 to 10 µM.

**Q.** Which IC50 [2] does the source give for `CC(C)(C)S(=O)(=O)NC(=O)c1cnn2ccc(N3CC(F)(F)CC3c3cc(F)ccc3F)cc12` (single isomer, unassigned) [Example 56] here?
**A.** Its IC50 is 0.1 to 0.5 µM.

**Q.** `O=C(NS(=O)(=O)C1CC1)c1cnn2ccc(N3CCC[C@@H]3c3cc(F)ccc3F)cc12` [Example 5, (R)-N-(cyclopropylsulfonyl)-5-(2-(2,5-difluorophenyl)pyrrolidin-1-yl)pyrazolo[1,5-a]pyridine-3-carboxamide] was tested. Which IC50 [2] did it give?
**A.** The IC50 was 0.1 to 0.5 µM.

**Q.** Which IC50 [2] does the source give for `CS(=O)(=O)NC(=O)c1cnn2ccc(N3CCC[C@@H]3c3cc(F)ccc3F)cc12` [Example 6, (R)-5-(2-(2,5-difluorophenyl)pyrrolidin-1-yl)-N-(methylsulfonyl)pyrazolo[1,5-a]pyridine-3-carboxamide] here?
**A.** The IC50 was 0.1 to 0.5 µM.

**Q.** For `CC(C)S(=O)(=O)NC(=O)c1cnn2ccc(N3CCC[C@@H]3c3cc(F)ccc3F)cc12` [Example 7, (R)-5-(2-(2,5-difluorophenyl)pyrrolidin-1-yl)-N-(isopropylsulfonyl)pyrazolo[1,5-a] pyridine-3-carboxamide], which IC50 [3] is on record?
**A.** The IC50 was no more than 0.05 µM.

**Q.** `O=C(NS(=O)(=O)c1ccc(N2CC[C@H](O)C2)cc1)c1cnn2ccc(N3CCC[C@@H]3c3cc(F)ccc3F)cc12` [Example 8, 5-((R)-2-(2,5-difluorophenyl)pyrrolidin-1-yl)-N-((4-((S)-3-hydroxypyrrolidin-1-yl)phenyl)sulfonyl)pyrazolo[1,5-a] pyridine-3-carboxamide] was tested. Which IC50 [3] did it give?
**A.** The IC50 was no more than 0.05 µM.

**Q.** `CN(C(=O)c1cnn2ccc(N3CCC[C@@H]3c3cc(F)ccc3F)cc12)S(=O)(=O)c1cccc(C#N)c1` [Example 9, (R)-N-((3-cyanophenyl)sulfonyl)-5-(2-(2,5-difluorophenyl)pyrrolidin-1-yl)-N-methylpyrazolo[1,5-a] pyridine-3-carboxamide] was tested. Which IC50 [3] did it give?
**A.** Its IC50 is no more than 0.05 µM.

**Q.** `Cc1noc(C)c1S(=O)(=O)NC(=O)c1cnn2ccc(N3CCC[C@@H]3c3cc(F)ccc3F)cc12` [Example 11, (R)-5-(2-(2,5-difluorophenyl)pyrrolidin-1-yl)-N-((3,5-dimethylisoxazol-4-yl)sulfonyl) pyrazolo[1,5-a]pyridine-3-carboxamide] was tested. Which IC50 [2] did it give?
**A.** Its IC50 is 0.1 to 0.5 µM.

**Q.** How did the IC50 [2] turn out when `O=C(NS(=O)(=O)C1CCCCC1)c1cnn2ccc(N3CCC[C@@H]3c3cc(F)ccc3F)cc12` [Example 12, (R)-N-(cyclohexylsulfonyl)-5-(2-(2,5-difluorophenyl)pyrrolidin-1-yl)pyrazolo[1,5-a] pyridine-3-carboxamide] was run?
**A.** Its IC50 is 0.1 to 0.5 µM.

**Q.** How did the IC50 [2] turn out when `O=C(NS(=O)(=O)C1CCCC1)c1cnn2ccc(N3CCC[C@@H]3c3cc(F)ccc3F)cc12` [Example 13, (R)-N-(cyclopentylsulfonyl)-5-(2-(2,5-difluorophenyl)pyrrolidin-1-yl)pyrazolo[1,5-a] pyridine-3-carboxamide] was run?
**A.** Its IC50 is 0.1 to 0.5 µM.

**Q.** How did the IC50 [2] turn out when `CC(C)CS(=O)(=O)NC(=O)c1cnn2ccc(N3CCC[C@@H]3c3cc(F)ccc3F)cc12` [Example 14, (R)-5-(2-(2,5-difluorophenyl)pyrrolidin-1-yl)-N-(isobutylsulfonyl)pyrazolo[1,5-a] pyridine-3-carboxamide] was run?
**A.** Its IC50 is 0.1 to 0.5 µM.

**Q.** With `Cc1nc(S(=O)(=O)NC(=O)c2cnn3ccc(N4CCC[C@@H]4c4cc(F)ccc4F)cc23)cn1C` [Example 15, (R)-5-(2-(2,5-difluorophenyl)pyrrolidin-1-yl)-N-((1,2-dimethyl-1H-imidazol-4-yl)sulfonyl)pyrazolo[1,5-a] pyridine-3-carboxamide] as the compound, how does the IC50 [4] read?
**A.** Its IC50 is 0.5 to 1 µM.

**Q.** Which IC50 [1] does the source give for `Cc1ncc(S(=O)(=O)NC(=O)c2cnn3ccc(N4CCC[C@@H]4c4cc(F)ccc4F)cc23)n1C` [Example 16, (R)-5-(2-(2,5-difluorophenyl)pyrrolidin-1-yl)-N-((1,2-dimethyl-1H-imidazol-5-yl)sulfonyl)pyrazolo[1,5-a] pyridine-3-carboxamide] here?
**A.** The IC50 was 1 to 10 µM.

**Q.** `O=C(NS(=O)(=O)C1CCNCC1)c1cnn2ccc(N3CCC[C@@H]3c3cc(F)ccc3F)cc12` [Example 17, (R)-5-(2-(2,5-difluorophenyl)pyrrolidin-1-yl)-N-(piperidin-4-ylsulfonyl)pyrazolo[1,5-a] pyridine-3-carboxamide] was tested. Which IC50 [1] did it give?
**A.** The IC50 was 1 to 10 µM.

**Q.** With `Cn1cnc(S(=O)(=O)NC(=O)c2cnn3ccc(N4CCC[C@@H]4c4cc(F)ccc4F)cc23)c1` [Example 18, (R)-5-(2-(2,5-difluorophenyl)pyrrolidin-1-yl)-N-((1-methyl-1H-imidazol-4-yl)sulfonyl) pyrazolo[1,5-a]pyridine-3-carboxamide] as the compound, how does the IC50 [1] read?
**A.** The IC50 was 1 to 10 µM.

**Q.** For `Cn1nccc1S(=O)(=O)NC(=O)c1cnn2ccc(N3CCC[C@@H]3c3cc(F)ccc3F)cc12` [Example 19, (R)-5-(2-(2,5-difluorophenyl)pyrrolidin-1-yl)-N-((1-methyl-1H-pyrazol-5-yl)sulfonyl) pyrazolo[1,5-a]pyridine-3-carboxamide], which IC50 [2] is on record?
**A.** Its IC50 is 0.1 to 0.5 µM.

**Q.** For `Cc1nc(C)c(S(=O)(=O)NC(=O)c2cnn3ccc(N4CCC[C@@H]4c4cc(F)ccc4F)cc23)s1` [Example 20, (R)-5-(2-(2,5-difluorophenyl)pyrrolidin-1-yl)-N-((2,4-dimethylthiazol-5-yl)sulfonyl) pyrazolo[1,5-a]pyridine-3-carboxamide], which IC50 [2] is on record?
**A.** Its IC50 is 0.1 to 0.5 µM.

**Q.** For `CN1C(=O)Cc2cc(S(=O)(=O)NC(=O)c3cnn4ccc(N5CCC[C@@H]5c5cc(F)ccc5F)cc34)ccc21` [Example 21, (R)-5-(2-(2,5-difluorophenyl)pyrrolidin-1-yl)-N-((1-methyl-2-oxoindolin-5-yl)sulfonyl) pyrazolo[1,5-a]pyridine-3-carboxamide], which IC50 [4] is on record?
**A.** Its IC50 is 0.5 to 1 µM.

**Q.** With `O=C(NS(=O)(=O)C1CCOCC1)c1cnn2ccc(N3CCC[C@@H]3c3cc(F)ccc3F)cc12` [Example 22, (R)-5-(2-(2,5-difluorophenyl)pyrrolidin-1-yl)-N-((tetrahydro-2H-pyran-4-yl)sulfonyl) pyrazolo[1,5-a]pyridine-3-carboxamide] as the compound, how does the IC50 [2] read?
**A.** The IC50 was 0.1 to 0.5 µM.

**Q.** For `CN(C)c1ccc(S(=O)(=O)NC(=O)c2cnn3ccc(N4CCC[C@@H]4c4cc(F)ccc4F)cc23)cn1` [Example 23, (R)-5-(2-(2,5-difluorophenyl)pyrrolidin-1-yl)-N-((6-(dimethylamino)pyridin-3-yl)sulfonyl)pyrazolo[1,5-a] pyridine-3-carboxamide], which IC50 [2] is on record?
**A.** Its IC50 is 0.1 to 0.5 µM.

**Q.** For `O=C(NS(=O)(=O)c1ccc(-n2cncn2)nc1)c1cnn2ccc(N3CCC[C@@H]3c3cc(F)ccc3F)cc12` [Example 27, (R)-N-((6-(1H-1,2,4-triazol-1-yl)pyridin-3-yl)sulfonyl)-5-(2-(2,5-difluorophenyl)pyrrolidin-1-yl)pyrazolo[1,5-a]pyridine-3-carboxamide], which IC50 [2] is on record?
**A.** The IC50 was 0.1 to 0.5 µM.

**Q.** `Cn1cc(S(=O)(=O)NC(=O)c2cnn3ccc(N4CCC[C@@H]4c4cc(F)ccc4F)cc23)cn1` [Example 28, (R)-5-(2-(2,5-difluorophenyl)pyrrolidin-1-yl)-N-((1-methyl-1H-pyrazol-4-yl)sulfonyl) pyrazolo[1,5-a]pyridine-3-carboxamide] was tested. Which IC50 [2] did it give?
**A.** The IC50 was 0.1 to 0.5 µM.

**Q.** Which IC50 [2] does the source give for `O=C(NS(=O)(=O)c1ccc(N2CCOCC2)cc1)c1cnn2ccc(N3CCC[C@@H]3c3cc(F)ccc3F)cc12` [Example 29, (R)-5-(2-(2,5-difluorophenyl)pyrrolidin-1-yl)-N-((4-morpholinophenyl)sulfonyl) pyrazolo[1,5-a]pyridine-3-carboxamide] here?
**A.** The IC50 was 0.1 to 0.5 µM.

**Q.** With `O=C(NS(=O)(=O)c1cccnc1)c1cnn2ccc(N3CCC[C@@H]3c3cc(F)ccc3F)cc12` [Example 30, (R)-5-(2-(2,5-difluorophenyl)pyrrolidin-1-yl)-N-(pyridin-3-ylsulfonyl)pyrazolo[1,5-a]pyridine-3-carboxamide] as the compound, how does the IC50 [4] read?
**A.** The IC50 was 0.5 to 1 µM.

**Q.** How did the IC50 [3] turn out when `O=C(NS(=O)(=O)c1ccc(Cl)s1)c1cnn2ccc(N3CCC[C@@H]3c3cc(F)ccc3F)cc12` [Example 31, (R)-N-((5-chlorothiophen-2-yl)sulfonyl)-5-(2-(2,5-difluorophenyl)pyrrolidin-1-yl)pyrazolo [1,5-a]pyridine-3-carboxamide] was run?
**A.** The IC50 was no more than 0.05 µM.

**Q.** How did the IC50 [2] turn out when `O=C(NS(=O)(=O)c1cc(Cl)sc1Cl)c1cnn2ccc(N3CCC[C@@H]3c3cc(F)ccc3F)cc12` [Example 32, (R)-N-((2,5-dichlorothiophen-3-yl)sulfonyl)-5-(2-(2,5-difluorophenyl)pyrrolidin-1-yl) pyrazolo[1,5-a]pyridine-3-carboxamide] was run?
**A.** Its IC50 is 0.1 to 0.5 µM.

**Q.** `O=C(NS(=O)(=O)C1CCC1)c1cnn2ccc(N3CCC[C@@H]3c3cc(F)ccc3F)cc12` [Example 33, (R)-N-(cyclobutylsulfonyl)-5-(2-(2,5-difluorophenyl)pyrrolidin-1-yl)pyrazolo[1,5-a]pyridine-3-carboxamide] was tested. Which IC50 [2] did it give?
**A.** Its IC50 is 0.1 to 0.5 µM.
